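Growth conditions: 96-well plates. Treatment: test compound, 48 hours, 5 concentrations. Analysis: linear interpolation between bracketing concentrations; unreached endpoints set to highest concentration. GI50: concentration for 50% inhibition of growth. The concentration for full growth arrest is given as TGI.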
Experiments:
Assay in all cases: DTP human tumour cell line panel, 48 h
786-0 renal = test system: 786-0 renal
BT-549 breast = test system: BT-549 breast
DU-145 prostate = test system: DU-145 prostate
LOX IMVI melanoma = test system: LOX IMVI melanoma
MALME-3M melanoma = test system: MALME-3M melanoma
NCI-H23 lung = test system: NCI-H23 lung
OVCAR-4 ovarian = test system: OVCAR-4 ovarian
RXF 393 renal = test system: RXF 393 renal
SF-539 CNS = test system: SF-539 CNS
SNB-75 CNS = test system: SNB-75 CNS

| SMILES | GI50 (786-0 renal) | TGI (786-0 renal) | GI50 (BT-549 breast) | TGI (BT-549 breast) | GI50 (DU-145 prostate) | TGI (DU-145 prostate) | GI50 (LOX IMVI melanoma) | TGI (LOX IMVI melanoma) | GI50 (MALME-3M melanoma) | TGI (MALME-3M melanoma) | GI50 (NCI-H23 lung) | TGI (NCI-H23 lung) | GI50 (OVCAR-4 ovarian) | TGI (OVCAR-4 ovarian) | GI50 (RXF 393 renal) | TGI (RXF 393 renal) | GI50 (SF-539 CNS) | TGI (SF-539 CNS) | GI50 (SNB-75 CNS) | TGI (SNB-75 CNS) |
| --- | --- | --- | --- | --- | --- | --- | --- | --- | --- | --- | --- | --- | --- | --- | --- | --- | --- | --- | --- | --- |
| CCC#CC[C@H](O)C/C=C1/C(=O)C=C[C@@H]1C/C=C\CCCC(=O)OC | 1.22 µM | 2.67 µM | 1.22 µM | 3.04 µM | 1.75 µM | 7.26 µM | 0.754 µM | 1.54 µM | 1.88 µM | 8.42 µM | 1.02 µM | 2.78 µM | 2.25 µM | 8.64 µM | 0.865 µM | 1.64 µM | 1.31 µM | 3.79 µM | 5.07 µM | 13.4 µM |
| CCCCC[C@H]1CC=C2C(=O)C=C[C@@H]2CC=CCCCC(=O)O[C@@H](CCCCC)CC=C2C(=O)C=C[C@@H]2CC=CCCCC(=O)O[C@@H](CCCCC)CC=C2C(=O)C=C[C@@H]2CC=CCCCC(=O)O1 | 0.325 µM | 1.43 µM | 0.241 µM | 0.772 µM | 0.353 µM | 2.52 µM | 0.15 µM | 0.306 µM | 0.295 µM | > 8.75 µM | 0.3 µM | 1.93 µM | 0.317 µM | > 8.75 µM | 0.194 µM | 0.422 µM | 0.322 µM | > 8.75 µM | 4.8 µM | > 8.75 µM |
| CC(CN(C)C)S(=O)(=O)c1ccc(-c2cnc(N)c(C(=O)Nc3ccccc3)n2)cc1 (centres undefined) | 2.37 µM | 15.2 µM | 6.43 µM | 27.2 µM | 4.56 µM | > 49.8 µM | 2.82 µM | 16.7 µM | 8.16 µM | 26.6 µM | 3.05 µM | 24.7 µM | 6.95 µM | 54.2 µM | 1.52 µM | 8.4 µM | 2.75 µM | 9.76 µM | 2.58 µM | 35.5 µM |
| O=C1OCC(c2ccc(O)cc2)=C1c1cc(O)c(O)c(O)c1 | 62.5 µM | > 100 µM | > 100 µM | > 100 µM | > 100 µM | > 100 µM | 32.6 µM | > 100 µM | > 100 µM | > 100 µM | > 100 µM | > 100 µM | > 100 µM | > 100 µM | > 100 µM | > 100 µM | > 100 µM | > 100 µM | > 100 µM | > 100 µM |
| Cc1cn(CCC(N)C(=O)O)c(=O)[nH]c1=O (centres undefined) | – | > 100 µM | – | > 100 µM | – | > 100 µM | – | > 100 µM | – | > 100 µM | – | > 100 µM | – | > 100 µM | – | > 100 µM | – | > 100 µM | – | > 100 µM |
| COc1cccc(-n2ncc3c(N/N=C/c4ccc(C)cc4)ncnc32)c1 | > 25 µM | > 25 µM | > 25 µM | > 25 µM | > 25 µM | > 25 µM | > 25 µM | > 25 µM | 24.1 µM | > 25 µM | > 25 µM | > 25 µM | > 25 µM | > 25 µM | > 25 µM | > 25 µM | > 25 µM | > 25 µM | > 25 µM | > 25 µM |
| CCCCCCCN(CCCCCCC)C(=N)c1ccnc2ccccc12 | 1.55 µM | 2.97 µM | 1.36 µM | 2.74 µM | 1.6 µM | 3.04 µM | 1.42 µM | 2.82 µM | 1.62 µM | 3.37 µM | 1.54 µM | 3.08 µM | 1.35 µM | 3.05 µM | 1.44 µM | 2.99 µM | 1.9 µM | 3.58 µM | 1.2 µM | 2.77 µM |
| O=C(Nc1ccc2ncnc(Nc3ccc(Oc4cccc(F)c4)c(Cl)c3)c2c1)c1ccc(CN2CCOCC2)cc1 | 1.97 µM | 4.33 µM | 2.3 µM | 7.56 µM | 3.14 µM | 15.8 µM | 2.24 µM | 5.33 µM | 2.01 µM | 5.2 µM | 2.09 µM | 5.89 µM | 2.53 µM | 8.52 µM | 2.02 µM | 5.83 µM | 2.51 µM | 6.99 µM | 1.97 µM | 9.22 µM |
| COC12C=C/C(=C(/C(=O)OCCSc3ccnn3C)C(=O)CCCCCCCCC3(OC)C=C/C(=C(/C(=O)OCCSc4ccnn4C)C(=O)CCCCCCCC1)O3)O2 | 1.07 µM | 4.12 µM | 0.954 µM | 2.83 µM | 1.31 µM | > 32.5 µM | 0.573 µM | 1.18 µM | 0.776 µM | 2.32 µM | 0.854 µM | 2.37 µM | 0.837 µM | 2.5 µM | 0.665 µM | 1.17 µM | 1.16 µM | 5.24 µM | 0.999 µM | 4.9 µM |
| COc1ccc(-c2nsc3c2NC(=O)CC3c2ccc3c(c2)OCCO3)cc1 (centres undefined) | 0.829 µM | > 100 µM | 0.674 µM | > 100 µM | 1.07 µM | > 21.6 µM | 0.601 µM | > 100 µM | 0.336 µM | > 100 µM | 1.38 µM | > 100 µM | 2.86 µM | > 100 µM | 0.629 µM | – | 0.8 µM | 6.71 µM | 0.22 µM | > 100 µM |
| O=C1NC(O)c2ccccc2O1 (centres undefined) | – | > 100 µM | – | > 100 µM | – | > 100 µM | – | > 100 µM | – | > 100 µM | – | > 100 µM | – | > 100 µM | – | > 100 µM | – | > 100 µM | – | > 100 µM |
| CCn1c(-c2c(Cl)cc(O)cc2Cl)cc2c(Cl)cc(O)cc21 | – | 24.8 µM | – | 15.5 µM | – | > 100 µM | – | 32.8 µM | – | 39.3 µM | – | 39 µM | – | 21.7 µM | – | 8.03 µM | – | 23.2 µM | – | 20.9 µM |
| C=C1C(=O)O[C@H]2[C@H]1CC/C(Cn1cc(Cc3c[nH]c4ccccc34)nn1)=C\CC[C@@]1(C)O[C@@H]21 | 1.77 µM | 3.48 µM | 1.41 µM | 2.76 µM | 1.54 µM | 2.88 µM | 1.55 µM | 3.03 µM | 1.63 µM | 3.07 µM | 2.02 µM | 4.56 µM | 2.05 µM | 5.61 µM | 1.63 µM | 3.63 µM | 1.76 µM | 3.35 µM | 3.08 µM | 12.5 µM |
